One test relates to MCF7. Briefly: Antiproliferative activity against human MCF7 cells assessed as cell growth inhibition incubated for 4 hrs by MTT assay. The note with it: MCF7, 4 h.
The subject of test [1] is HepG2. Briefly: Antiproliferative activity against human HepG2 cells assessed as cell growth inhibition incubated for 4 hrs by MTT assay. The note with it: HepG2, 4 h.
Another test has as its system Hepatocyte. The test can be described thus: Cytotoxicity against rat hepatocytes assessed as reduction in cell growth for 4 hrs by MTT assay. In general terms: Tetrazolium assays rely on reduction of a dye to a coloured formazan, in cell work by metabolically active cells.
The test system of test [2] is HepG2. The test can be described thus: Cell cycle arrest in human HepG2 cells assessed as accumulation at sub G1 phase at 5.4 uM incubated for 24 hrs by DNA flow cytometric assay (reference value: 1.53 +/- 0.21%). The format is functional.
Test [3] deals with HepG2. The test can be described thus: Cell cycle arrest in human HepG2 cells assessed as accumulation at G1 phase at 5.4 uM incubated for 24 hrs by DNA flow cytometric assay (reference value: 66.40 +/- 3.21%). The format is functional.
For test [4], the system named is HepG2. The test can be described thus: Cell cycle arrest in human HepG2 cells assessed as accumulation at S phase at 5.4 uM incubated for 24 hrs by DNA flow cytometric assay (reference value: 19.52 +/- 1.55%). The format is functional. A general note: A flow cytometer gives signals particle by particle.
Test [5] concerns HepG2. Briefly: Cell cycle arrest in human HepG2 cells assessed as accumulation at G2/M phase at 5.4 uM incubated for 24 hrs by DNA flow cytometric assay (reference value: 12.53 +/- 1.48%). The format is functional.
Test [6] has as its system HepG2. The test can be described thus: Induction of apoptosis in human HepG2 cells assessed as viable cells at 5.4 uM incubated for 24 hrs by annexinV-FITC/propidium iodide staining based flow cytometry (reference value: 92.54 +/- 1.64 %). The class given is functional. The conditions noted are these: read-out: Activity.
Test [7] relates to HepG2. Briefly: Induction of apoptosis in human HepG2 cells assessed as early apoptotic cells at 5.4 uM incubated for 24 hrs by annexinV-FITC/propidium iodide staining based flow cytometry (reference value: 7.22 +/- 0.64 %). The class given is functional.
Test [8] concerns HepG2. The test can be described thus: Induction of apoptosis in human HepG2 cells assessed as late apoptotic cells at 5.4 uM incubated for 24 hrs by annexinV-FITC/propidium iodide staining based flow cytometry (reference value: 0.13 +/- 0.01%). The class given is functional.
Test [9] relates to HepG2. The test can be described thus: Induction of apoptosis in human HepG2 cells assessed as necrotic cells at 5.4 uM incubated for 24 hrs by annexinV-FITC/propidium iodide staining based flow cytometry (reference value: 0.07 +/- 0.01 %). The format is functional.

pIC50: −log10 of the molar value.

As usually defined, the pIC50 is the negative decadic logarithm of the IC50, by convention in mol/L. On to `Cc1cccc(C)c1NC(=O)c1ccc(NC(=O)CSc2nc3ccccc3n3cnnc23)cc1`, for which the pIC50 with MCF7 was 4.16; in the test with HepG2 [1], 4.27.
As to `O=C(Cn1c(=O)c2nncn2c2ccccc21)Nc1ccc(C(=O)NC2CCCCC2)cc1`, the results for the pIC50 with MCF7 and with HepG2 [1] were 4.39 and 4.62, respectively.
The corresponding values for `O=C(CSc1nc2ccccc2n2cnnc12)Nc1ccc(C(=O)Nc2ccc([N+](=O)[O-])cc2)cc1` are 4.21 and 4.37.
On to `O=C(CSc1nc2ccccc2n2cnnc12)Nc1ccc(C(=O)Nc2ccc(Cl)cn2)cc1`, for which the pIC50 was 4.91 with MCF7 and 5.08 in the test on HepG2 [1].
Take `O=C(CSc1nc2ccccc2n2cnnc12)Nc1ccc(C(=O)NNC(=O)c2ccccc2)cc1`: the pIC50 with MCF7 is 4.24; in the test with HepG2 [1], 4.38.
Consider `O=C(Cn1c(=O)c2nncn2c2ccccc21)Nc1ccc(C(=O)Nc2ccc([N+](=O)[O-])cc2)cc1`, for which the pIC50 in the test on MCF7 is 4.29; in the test with HepG2 [1] it was 4.37.
Take `O=C(Cn1c(=O)c2nncn2c2ccccc21)Nc1ccc(C(=O)Nc2ccc(Cl)cn2)cc1`: the results for the pIC50 with MCF7 and in the test with HepG2 [1] were 4.15 and 4.32, respectively.
With `O=C(CSc1nc2ccccc2n2cnnc12)Nc1ccc(C(=O)Nc2ccccn2)cc1`, the pIC50 was 4.26 with MCF7 and 4.29 in the test on HepG2 [1].
In the case of `O=C(CSc1nc2ccccc2n2cnnc12)Nc1ccc(C(=O)NNC(=O)c2ccc([N+](=O)[O-])cc2)cc1`, the pIC50 with MCF7 is 4.14; in the test with HepG2 [1] it was 4.28.
On to `Cc1cccc(C)c1NC(=O)c1ccc(NC(=O)Cn2c(=O)c3nncn3c3ccccc32)cc1`, for which the pIC50 in the test on MCF7 is 4.67; in the test on HepG2 [1] it was 4.76.
As to `Cc1ccccc1NC(=O)c1ccc(NC(=O)CSc2nc3ccccc3n3cnnc23)cc1`, the figures for the negative-log IC50 (pIC50) with MCF7 and in the test with HepG2 [1] were 4.42 and 4.50, respectively.
Regarding `Cc1cccc(NC(=O)c2ccc(NC(=O)Cn3c(=O)c4nncn4c4ccccc43)cc2)c1`, the pIC50 in the test on MCF7 is 4.99; with HepG2 [1] it was 5.19.
`O=C(Cn1c(=O)c2nncn2c2ccccc21)Nc1ccc(C(=O)NCc2ccccc2)cc1`: the pIC50 is 5.01 in the test on MCF7 and 5.10 in the test on HepG2 [1].
Regarding `O=C(Cn1c(=O)c2nncn2c2ccccc21)Nc1ccc(C(=O)NNC(=O)c2ccccc2)cc1`, the pIC50 in the test on MCF7 was 4.63; in the test with HepG2 [1], 4.81.
For `O=C(Cn1c(=O)c2nncn2c2ccccc21)Nc1ccc(C(=O)Nc2ccccc2)cc1`, in that order: 4.17 and 4.24.
With `O=C(CSc1nc2ccccc2n2cnnc12)Nc1ccc(C(=O)NCc2ccccc2)cc1`, the pIC50 in the test on MCF7 is 4.28; in the test on HepG2 [1], 4.36.
Regarding `O=C(CSc1nc2ccccc2n2cnnc12)Nc1ccc(C(=O)NNc2ccccc2)cc1`, the pIC50 was 4.23 in the test with MCF7 and 4.42 in the test on HepG2 [1].
On to `O=C(Cn1c(=O)c2nncn2c2ccccc21)Nc1ccc(C(=O)NNC(=O)c2ccc([N+](=O)[O-])cc2)cc1`, for which the pIC50 with MCF7 was 4.51; in the test with HepG2 [1] it was 4.71.
The corresponding values for `Cc1cccc(NC(=O)c2ccc(NC(=O)CSc3nc4ccccc4n4cnnc34)cc2)c1` are 4.33 and 4.63.
As for `O=C(CSc1nc2ccccc2n2cnnc12)Nc1ccc(C(=O)Nc2ccccc2)cc1`, the pIC50 in the test with MCF7 was 5.09; with HepG2 [1] it was 5.27; in the test on Hepatocyte, 4.50. The Activity was 1.32% in the test on HepG2 [2]; 42.55% with HepG2 [3]; 30.12% with HepG2 [4]; 25.99% in the test on HepG2 [5]; 30.27% in the test with HepG2 [7]; 0.22% in the test with HepG2 [8]. In addition, the Activity with HepG2 [9] is listed as 0.14%. For the same compound, the viability at 5.4 µM with HepG2 [6] came out at 69.4%.
On to `O=C(CSc1nc2ccccc2n2cnnc12)Nc1ccc(C(=O)NC2CCCCC2)cc1`, for which the pIC50 was 4.16 with MCF7 and 4.19 with HepG2 [1].
`CNC(=O)c1cc(Oc2ccc(NC(=O)Nc3ccc(Cl)c(C(F)(F)F)c3)cc2)ccn1` [SORAFENIB]: the pIC50 in the test with HepG2 [1] was 5.66; in the test with Hepatocyte, 4.78.

The values are drawn from ChEMBL document CHEMBL4808252, “Identification of new [1,2,4]triazolo[4,3-a]quinoxalines as potent VEGFR-2 tyrosine kinase inhibitors: Design, synthesis, anticancer evaluation, and in silico studies” (Bioorg Med Chem, 2021).
